Experimental data taken from patent publication US20180037568A1, “MODULATORS OF METHYL MODIFYING ENZYMES, COMPOSITIONS AND USES THEREOF” (Constellation Pharmaceuticals, Inc., priority 2015, published 2018).
Like-named read-outs stand apart in the source and are kept apart here.

Legend:
[1] = target: EZH2 (Homo sapiens, UniProt Q15910); assay: EZH2 nuc BSA Brij 1.5 (IC50): rPRC2, biotinylated oligonucleosome substrate, 3H SAM FlashPlate; type: biochemical
Procedure: EZH2 Nuc BSA Brij 1.5 (IC50):
Assays were carried out by mixing rPRC2 together with biotinylated oligonucleosome substrates in the presence of the radio-labeled enzyme co-factor, S-adenosyl-L-methionine (^3H SAM) (Perkin Elmer) and monitoring the enzymatically mediated transfer of tritiated methyl groups from ^3H SAM to histone lysine residues. The amount of resulting tritiated methyl histone product was measured by first capturing the biotinylated oligonucleosomes in streptavidin (SAV) coated FlashPlates (Perkin Elmer), followed by a wash step to remove un-reacted ^3H SAM, and then counting on a TopCount NXT 384 well plate scintillation counter (Perkin Elmer). The final assay conditions for EZH2 were as follows: 50 mM Tris Buffer pH 8.5, 1 mM DTT, 69 μM Brij-35 detergent, 5.0 mM MgCl2, 0.1 mg/mL BSA, 0.2 μM ^3H SAM, 0.2 μM biotinylated oligonucleosomes, 3.6 μM H3K27me3 peptide and 2 nM EZH2.
Compound IC50 Measurements were Obtained as Follows:
Compounds were first dissolved in 100% DMSO as 10 mM stock solutions. Ten point dose response curves were generated by dispensing varying amounts of the 10 mM compound solution in 10 wells of the 384 well plate (Echo; Labcyte), pure DMSO was then used to backfill the wells to insure all wells have the same amount of DMSO. A 12.5 μL volume of the HMT enzyme, H3K27me3 peptide and oligonucleosome substrate in assay buffer was added to each well of the assay plate using a Multidrop Combi (ThermoFisher). Compounds were pre-incubated with the enzyme for 20 min, followed by initiation of the methyltransferase reaction by addition of 12.5 μL of ^3H SAM in assay buffer (final volume=25 μL). The final concentrations of compounds ranged from a top default concentration of 80 μM down to 0.16 μM in ten 2-fold dilution steps. Reactions were carried out for 60 minutes and quenched with 20 μL per well of 1.96 mM SAH, 50 mM Tris pH 8.5, 200 mM EDTA. Stopped reactions were transferred to SAV coated Flashplates (Perkin Elmer), incubated for 120 min, washed with a plate washer, and then read on the TopCount NXT (1.0 min/well) to measure the amount of methyl histone product formed during the reaction. The amount of methyl histone product was compared with the amount of product formed in the 0% and 100% inhibition control wells allowing the calculation of % Inhibition in the presence of the individual compounds at various concentrations. IC50's were computed using a 4 parameter fit non-linear curve fitting software package (XLFIT, part of the database package, ActivityBase (IDBS)) where the four parameters were IC50, Hill slope, pre-transitional baseline (0% INH), and post-transitional baseline (100% INH); with the latter two parameters being fixed to zero and 100%, respectively, by default.

[2] = target: T1, PRC2 containing wt EZH2 (Homo sapiens, UniProt Q15910); assay: EZH2 pep BSA Brij 4.0 LowE (IC50): 3H-SAM incorporation into biotinylated H3 peptide; type: biochemical
T1 construct: made in house
In short: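 PRC2 (wt EZH2, 20 pM) pre-incubated 120 min with compound, 0.9 μM 3H-SAM and 2 μM H3K27me3 activating peptide in pH 8.5 Tris/DTT/Brij-35/0.1% BSA, 0.8% DMSO. Biotinylated H3K27me1 peptide added (2 μM stock), 5 h at room temperature, EDTA/SAH quench, streptavidin Flashplate capture. IC50 from four-parameter fit versus full-activity and no-enzyme controls.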

[3] = test system: H3K27me3 mark; assay: H3K27me3 Alpha Hela Assay (AlphaLISA); type: cell-based; conditions: Hela cells, read-out: EZH2 Cell H3K27me3 Alpha HeLa (EC50 K27me3)
In short: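 HeLa cells at 1,000/well were treated with ten 3-fold compound doses for 72 h at 37 °C. After lysis and histone extraction, H3K27me3 was detected by AlphaLISA with anti-K27me3 acceptor beads, biotinylated anti-H3 (C-ter) antibody (3 nM final) and streptavidin donor beads (20 μg/mL final). Signals were normalized to DMSO and curve-fitted for EC50.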

[4] = EZH2 nuc BSA Brij 1.5 (IC50), 2 nM EZH2, 0.2 μM biotinylated oligonucleosomes, 0.2 μM 3H SAM, 3.6 μM H3K27me3 peptide
[5] = EZH2 pep BSA Brij 4.0 LowE (IC50), 20 pM PRC2 wt EZH2, 0.9 μM 3H-SAM, biotinylated H3 peptide substrate, 2 μM H3K27me3 activating peptide
[6] = read-out: EZH2 nuc BSA Brij 1.5 (IC50); 2 nM EZH2, 0.2 μM biotinylated oligonucleosomes, 0.2 μM 3H SAM, 3.6 μM H3K27me3 peptide
[7] = read-out: EZH2 pep BSA Brij 4.0 LowE (IC50); 20 pM PRC2 wt EZH2, 0.9 μM 3H-SAM, biotinylated H3 peptide substrate, 2 μM H3K27me3 activating peptide
[8] = 2 nM EZH2, 0.2 μM biotinylated oligonucleosomes, 0.2 μM 3H SAM, 3.6 μM H3K27me3 peptide; read-out: EZH2 nuc BSA Brij 1.5 (IC50)

EZH2, sequence (Q15910 whole entry): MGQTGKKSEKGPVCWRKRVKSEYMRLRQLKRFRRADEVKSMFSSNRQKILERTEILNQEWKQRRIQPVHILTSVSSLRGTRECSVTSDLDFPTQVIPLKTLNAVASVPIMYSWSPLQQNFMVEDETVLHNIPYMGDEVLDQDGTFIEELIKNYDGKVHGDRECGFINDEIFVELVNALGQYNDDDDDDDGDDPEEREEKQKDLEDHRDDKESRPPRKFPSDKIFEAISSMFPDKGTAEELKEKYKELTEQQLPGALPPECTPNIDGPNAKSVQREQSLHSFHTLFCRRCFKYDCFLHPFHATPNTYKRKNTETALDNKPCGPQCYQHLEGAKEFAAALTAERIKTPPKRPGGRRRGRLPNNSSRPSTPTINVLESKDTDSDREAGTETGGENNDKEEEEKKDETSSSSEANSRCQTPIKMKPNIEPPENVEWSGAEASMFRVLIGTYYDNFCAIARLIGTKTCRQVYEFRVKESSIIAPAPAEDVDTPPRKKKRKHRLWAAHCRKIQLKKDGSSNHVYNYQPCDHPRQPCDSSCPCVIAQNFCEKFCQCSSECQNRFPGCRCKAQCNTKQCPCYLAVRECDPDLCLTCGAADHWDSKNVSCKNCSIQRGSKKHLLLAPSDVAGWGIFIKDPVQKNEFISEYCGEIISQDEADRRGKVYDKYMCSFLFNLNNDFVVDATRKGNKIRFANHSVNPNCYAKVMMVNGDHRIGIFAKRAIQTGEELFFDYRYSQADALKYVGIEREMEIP
EZH2, sequence (O75530 whole entry partner): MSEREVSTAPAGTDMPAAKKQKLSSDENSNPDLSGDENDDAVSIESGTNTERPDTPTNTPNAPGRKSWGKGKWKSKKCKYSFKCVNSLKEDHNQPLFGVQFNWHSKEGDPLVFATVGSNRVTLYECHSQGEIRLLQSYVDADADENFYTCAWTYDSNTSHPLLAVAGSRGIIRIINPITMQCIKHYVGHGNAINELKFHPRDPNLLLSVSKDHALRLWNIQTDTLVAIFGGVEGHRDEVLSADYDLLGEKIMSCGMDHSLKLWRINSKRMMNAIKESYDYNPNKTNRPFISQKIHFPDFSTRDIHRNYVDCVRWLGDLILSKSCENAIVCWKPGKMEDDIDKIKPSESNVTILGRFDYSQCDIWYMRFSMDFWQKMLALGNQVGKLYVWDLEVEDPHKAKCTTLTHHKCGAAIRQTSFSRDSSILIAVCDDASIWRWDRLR
EZH2, sequence (Q15022 whole entry partner): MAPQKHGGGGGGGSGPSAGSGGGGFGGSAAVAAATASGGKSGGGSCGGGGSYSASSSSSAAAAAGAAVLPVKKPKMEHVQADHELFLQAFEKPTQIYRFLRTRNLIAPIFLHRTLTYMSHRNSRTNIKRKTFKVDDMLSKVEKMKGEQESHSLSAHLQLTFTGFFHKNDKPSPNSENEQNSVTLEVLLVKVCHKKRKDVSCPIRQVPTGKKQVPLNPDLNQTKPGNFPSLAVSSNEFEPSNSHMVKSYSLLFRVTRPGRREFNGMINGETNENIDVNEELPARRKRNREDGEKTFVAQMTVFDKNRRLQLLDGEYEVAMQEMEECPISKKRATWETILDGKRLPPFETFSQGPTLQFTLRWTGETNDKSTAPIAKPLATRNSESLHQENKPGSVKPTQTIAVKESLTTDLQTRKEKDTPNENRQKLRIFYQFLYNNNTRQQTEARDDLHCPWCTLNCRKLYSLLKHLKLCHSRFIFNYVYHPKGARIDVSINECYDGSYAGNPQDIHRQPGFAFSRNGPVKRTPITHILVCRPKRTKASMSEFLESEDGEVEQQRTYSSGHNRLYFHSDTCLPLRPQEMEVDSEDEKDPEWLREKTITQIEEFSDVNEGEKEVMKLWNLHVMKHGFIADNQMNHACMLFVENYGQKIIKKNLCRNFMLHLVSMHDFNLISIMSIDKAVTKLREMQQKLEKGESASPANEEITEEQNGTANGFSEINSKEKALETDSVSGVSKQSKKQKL
T1 sequence (Q15910 whole entry): as the sequence (Q15910 whole entry) above
T1 sequence (O75530 whole entry partner): as the sequence (O75530 whole entry partner) above
T1 sequence (Q15022 whole entry partner): as the sequence (Q15022 whole entry partner) above
T1 sequence (Q09028 whole entry partner): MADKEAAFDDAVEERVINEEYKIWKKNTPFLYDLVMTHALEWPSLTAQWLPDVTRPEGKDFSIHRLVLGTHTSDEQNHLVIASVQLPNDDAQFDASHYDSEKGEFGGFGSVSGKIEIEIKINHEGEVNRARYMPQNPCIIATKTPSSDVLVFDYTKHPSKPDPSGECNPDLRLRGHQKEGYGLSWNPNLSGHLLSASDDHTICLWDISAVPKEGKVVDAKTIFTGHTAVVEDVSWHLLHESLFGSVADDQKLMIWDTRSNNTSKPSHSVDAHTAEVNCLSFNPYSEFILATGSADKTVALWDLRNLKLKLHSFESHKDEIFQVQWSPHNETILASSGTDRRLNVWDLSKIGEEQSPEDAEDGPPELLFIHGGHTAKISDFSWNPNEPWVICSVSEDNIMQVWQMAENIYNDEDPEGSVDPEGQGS
T1 sequence (Q6ZN18 whole entry partner): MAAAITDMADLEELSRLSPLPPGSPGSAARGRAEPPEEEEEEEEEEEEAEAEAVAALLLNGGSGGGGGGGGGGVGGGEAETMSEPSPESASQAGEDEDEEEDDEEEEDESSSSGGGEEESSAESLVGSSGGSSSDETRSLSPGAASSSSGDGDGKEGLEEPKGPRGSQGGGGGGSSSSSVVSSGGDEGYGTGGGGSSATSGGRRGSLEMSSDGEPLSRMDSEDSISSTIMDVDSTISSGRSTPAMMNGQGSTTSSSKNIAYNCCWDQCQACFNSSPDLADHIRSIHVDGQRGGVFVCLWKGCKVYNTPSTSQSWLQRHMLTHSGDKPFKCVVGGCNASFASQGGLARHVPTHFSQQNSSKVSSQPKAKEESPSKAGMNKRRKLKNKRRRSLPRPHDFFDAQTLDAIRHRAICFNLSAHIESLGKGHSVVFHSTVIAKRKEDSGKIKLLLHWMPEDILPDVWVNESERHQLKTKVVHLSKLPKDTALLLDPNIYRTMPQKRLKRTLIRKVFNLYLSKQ

For `COc1cc(C)[nH]c(=O)c1CNC(=O)c1c(C)n(C(C)C2CCNC(C(F)(F)F)C2)c2ccccc12` (single isomer, unassigned) [Compound 14, N-((4-methoxy-6-methyl-2-oxo-1,2-dihydropyridin-3-yl)methyl)-2-methyl-1-(1-(2-(trifluoromethyl)piperidin-4-yl)ethyl)-1H-indole-3-carboxamide], the IC50 [1, 4] was < 100 nM, the IC50 [2, 5] was < 100 nM and the EC50 ([3]; 72 hrs) was < 400 nM.

With `COc1cc(C)[nH]c(=O)c1CNC(=O)c1c(C)n(C(C)C2CCN(C)C(C(F)(F)F)C2)c2ccccc12` (single isomer, unassigned) [Compound 15, N-((4-methoxy-6-methyl-2-oxo-1,2-dihydropyridin-3-yl)methyl)-2-methyl-1-(1-(1-methyl-2-(trifluoromethyl)piperidin-4-yl)ethyl)-1H-indole-3-carboxamide] the IC50 [1, 6] was < 100 nM, the IC50 [2, 5] was < 100 nM and the EC50 ([3]; 72 hrs) was < 400 nM.

`COc1cc(C)[nH]c(=O)c1CNC(=O)c1c(C)n(C(C)C2CCNC(C(F)(F)F)C2)c2ccccc12` (single isomer, unassigned) [Compound 18, N-((4-methoxy-6-methyl-2-oxo-1,2-dihydropyridin-3-yl)methyl)-2-methyl-1-(1-(2-(trifluoromethyl)piperidin-4-yl)ethyl)-1H-indole-3-carboxamide] was tested, and the IC50 [1, 4] was < 100 nM, the IC50 [2, 7] was < 100 nM and the EC50 ([3]; 72 hrs) was < 400 nM.

For `COc1cc(C)[nH]c(=O)c1CNC(=O)c1c(C)n(C(C)C2CCN(C)C(C(F)(F)F)C2)c2ccccc12` (single isomer, unassigned) [Compound 24, N-((4-methoxy-6-methyl-2-oxo-1,2-dihydropyridin-3-yl)methyl)-2-methyl-1-(1-(1-methyl-2-(trifluoromethyl)piperidin-4-yl)ethyl)-1H-indole-3-carboxamide], the IC50 [1, 6] was < 100 nM, the IC50 [2, 7] was < 100 nM and the EC50 ([3]; 72 hrs) was < 400 nM.

`COc1cc(C)[nH]c(=O)c1CNC(=O)c1c(C)n(C(C)C2CCNC(c3ccc(F)cc3)C2)c2ccccc12` (single isomer, unassigned) [Compound 31, 1-(1-(2-(4-fluorophenyl)piperidin-4-yl)ethyl)-N-((4-methoxy-6-methyl-2-oxo-1,2-dihydropyridin-3-yl)methyl)-2-methyl-1H-indole-3-carboxamide] was tested, and the IC50 [1, 8] was < 100 nM, the IC50 ([2]; 20 pM PRC2 wt EZH2, 0.9 μM 3H-SAM, biotinylated H3 peptide substrate, 2 μM H3K27me3 activating peptide; read-out: EZH2 pep BSA Brij 4.0 LowE (IC50)) was < 100 nM and the EC50 ([3]; 72 hrs) was 400 to 2000 nM.

`COc1cc(C)[nH]c(=O)c1CNC(=O)c1c(C)n(C(C)C2CCNC(c3ccc(F)cc3)C2)c2ccccc12` (single isomer, unassigned) [Compound 32, 1-(1-(2-(4-fluorophenyl)piperidin-4-yl)ethyl)-N-((4-methoxy-6-methyl-2-oxo-1,2-dihydropyridin-3-yl)methyl)-2-methyl-1H-indole-3-carboxamide] was tested, and the IC50 [1, 8] was < 100 nM and the EC50 ([3]; 72 hrs) was > 2000 nM.

With `COc1cc(C)[nH]c(=O)c1CNC(=O)c1c(C)n(C(C)C2CCNC(C(F)F)C2)c2ccccc12` (single isomer, unassigned) [Compound 36, 1-(1-(2-(difluoromethyl)piperidin-4-yl)ethyl)-N-((4-methoxy-6-methyl-2-oxo-1,2-dihydropyridin-3-yl)methyl)-2-methyl-1H-indole-3-carboxamide] the IC50 [1, 4] was < 100 nM and the EC50 ([3]; 72 hrs) was > 2000 nM.

For `COc1cc(C)[nH]c(=O)c1CNC(=O)c1c(C)n(C(C)C2CCNC(C(F)F)C2)c2ccccc12` (single isomer, unassigned) [Compound 37, 1-(1-(2-(difluoromethyl)piperidin-4-yl)ethyl)-N-((4-methoxy-6-methyl-2-oxo-1,2-dihydropyridin-3-yl)methyl)-2-methyl-1H-indole-3-carboxamide], the IC50 [1, 6] was < 100 nM and the EC50 ([3]; 72 hrs) was 400 to 2000 nM.

`COc1cc(C)[nH]c(=O)c1CNC(=O)c1c(C)n(C(C)C2CCN(CC3CC3)C(C(F)(F)F)C2)c2ccccc12` (single isomer, unassigned) [Compound 38, 1-(1-(1-(cyclopropylmethyl)-2-(trifluoromethyl)piperidin-4-yl)ethyl)-N-((4-methoxy-6-methyl-2-oxo-1,2-dihydropyridin-3-yl)methyl)-2-methyl-1H-indole-3-carboxamide] was tested, and the IC50 [1, 4] was < 100 nM and the EC50 ([3]; Homo sapiens, HeLa, 72 h) was > 2000 nM.

`COc1cc(C)[nH]c(=O)c1CNC(=O)c1c(C)n(C(C)C2CCN(CC3CC3)C(C(F)(F)F)C2)c2ccccc12` (single isomer, unassigned) [Compound 39, 1-(1-(1-(cyclopropylmethyl)-2-(trifluoromethyl)piperidin-4-yl)ethyl)-N-((4-methoxy-6-methyl-2-oxo-1,2-dihydropyridin-3-yl)methyl)-2-methyl-1H-indole-3-carboxamide] was tested, and the IC50 [1, 6] was < 100 nM and the EC50 ([3]; 72 hrs) was > 2000 nM.

`COc1cc(C)[nH]c(=O)c1CNC(=O)c1c(C)n(C(C)C2CCN(CC(F)F)C(C)C2)c2ccccc12` (single isomer, unassigned) [Compound 41, 1-(1-(1-(2,2-difluoroethyl)-2-methylpiperidin-4-yl)ethyl)-N-((4-methoxy-6-methyl-2-oxo-1,2-dihydropyridin-3-yl)methyl)-2-methyl-1H-indole-3-carboxamide] was tested, and the IC50 [1, 6] was < 100 nM and the EC50 ([3]; 72 hrs) was < 400 nM.

In the case of `COc1cc(C)[nH]c(=O)c1CNC(=O)c1c(C)n(C(C)C2CCN(CC(F)(F)F)C(C)C2)c2ccccc12` (single isomer, unassigned) [Compound 42, N-((4-methoxy-6-methyl-2-oxo-1,2-dihydropyridin-3-yl)methyl)-2-methyl-1-(1-(2-methyl-1-(2,2,2-trifluoroethyl)piperidin-4-yl)ethyl)-1H-indole-3-carboxamide], the IC50 [1, 4] is reported as < 100 nM and the EC50 ([3]; Homo sapiens, HeLa, 72 h) is reported as 400 to 2000 nM.

`COc1cc(C)[nH]c(=O)c1CNC(=O)c1c(C)n(C(C)C2CCNC3CCCCC32)c2ccccc12` (centres unmarked) [Compound 4, 1-(1-(decahydroquinolin-4-yl)ethyl)-N-((4-methoxy-6-methyl-2-oxo-1,2-dihydropyridin-3-yl)methyl)-2-methyl-1H-indole-3-carboxamide] was tested, and the IC50 [1, 4] was < 100 nM and the EC50 ([3]; Homo sapiens, HeLa, 72 h) was > 2000 nM.

In the case of `COc1cc(C)[nH]c(=O)c1CNC(=O)c1c(C)n(C(C)C2CCN(C)C(=O)C2)c2ccccc12` (centres unmarked) [Compound 11, N-((4-methoxy-6-methyl-2-oxo-1,2-dihydropyridin-3-yl)methyl)-2-methyl-1-(1-(1-methyl-2-oxopiperidin-4-yl)ethyl)-1H-indole-3-carboxamide], the IC50 [1, 4] is reported as < 100 nM and the EC50 ([3]; Homo sapiens, HeLa, 72 h) is reported as > 2000 nM.

For `COc1cc(C)[nH]c(=O)c1CNC(=O)c1c(C)n(C(C)C2CCNCC2C(F)(F)F)c2ccccc12` (centres unmarked) [Compound 19, N-((4-methoxy-6-methyl-2-oxo-1,2-dihydropyridin-3-yl)methyl)-2-methyl-1-(1-(3-(trifluoromethyl)piperidin-4-yl)ethyl)-1H-indole-3-carboxamide], the IC50 [1, 4] was < 100 nM and the EC50 ([3]; Homo sapiens, HeLa, 72 h) was > 2000 nM.
